Data taken from US20070049564A1 (Wyeth, priority 2005, published 2007).
Where two headings read alike, the source gives them in different places.

Key:
E. coli GC 2235 = assay: MIC, broth microdilution
Method: (§1) Antimicrobial susceptibility testing. The in vitro activities of the antibiotics are determined by the broth microdilution method as recommended by the National Committee for Clinical Laboratory Standards (NCCLS) (1). Mueller-Hinton II broth (MHBII)(BBL Cockeysville, Md.) is the medium employed in the testing procedures. Microtiter plates containing serial dilutions of each antimicrobial agent are inoculated with each organism to yield the appropriate density (10^5 CFU/ml) in a 100 μl final volume. The plates are incubated for 18-22 hours at 35° C. in ambient air.
(§2) Representative compounds were first incubated in mouse serum for an hour prior to the in vitro testing against a panel of selected gram-positive and gram-negative bacteria strains. All compounds were also pre-incubated in water for an hour prior to testing as control. Representative compounds of Formula I were incubated in human serum prior to MIC determination.

E. coli GC 2272 = assay: MIC, broth microdilution
E. coli GC 4559 = assay: MIC, broth microdilution; conditions: Escherichia coli, GC4559, E. coli GC 4559
Method: as §1, §2

E. coli GC 4560 = assay: MIC, broth microdilution; conditions: Escherichia coli, GC4560, E. coli GC 4560
E. coli GC 6465 = assay: MIC, broth microdilution; conditions: Escherichia coli, GC6465, E. coli GC 6465
E. coli GC 1073 = assay: MIC, broth microdilution
S. typhimurium GC 2172 = assay: MIC, broth microdilution; conditions: Salmonella enterica, TYPHIMURIUM
S. aureus GC 1131 = assay: MIC, broth microdilution
S. aureus GC 6467 = assay: MIC, broth microdilution
S. aureus GC 1079 = assay: MIC, broth microdilution
S. aureus GC 4536 = assay: MIC, broth microdilution
S. epidermidis GC 4935 = assay: MIC, broth microdilution
E. faecalis GC 4555 = assay: MIC, broth microdilution; conditions: Enterococcus faecalis
E. faecalis GC 2267 = assay: MIC, broth microdilution
E. faecalis GC 2242 = assay: MIC, broth microdilution
S. pneumoniae* GC 4465 = assay: MIC, broth microdilution; conditions: Streptococcus pneumoniae
Method: as §1, §2

S. pneumoniae+ GC 4465 = assay: MIC, broth microdilution
S. agalactiae GC 4564 = assay: MIC, broth microdilution
c. albicans GC 3066 = assay: MIC, broth microdilution
Staph. aureus Smith = assay: In vivo activity (oral, iv; ED50) against Staph. aureus Smith in mice
Method: Representative examples of compounds of Formula I were tested for the oral efficacy using S. aureus Smith in mice.

CCCN(CC(=O)Nc1cc(N(C)C)c2c(c1O)C(=O)C1=C(O)[C@]3(O)C(=O)C(C(N)=O)=C(O)[C@@H](N(C)C)[C@@H]3C[C@@H]1C2)C(=O)OCC [Example 15, ethyl 2-{[(5aR,6aS,7S,10aS)-9-(aminocarbonyl)-4,7-bis(dimethylamino)-1,8,10a,11-tetrahydroxy-10,12-dioxo-5,5a,6,6a,7,10,10a,12-octahydrotetracen-2-yl]amino}-2-oxoethyl(propyl)carbamate]
32 µg/mL: MIC (E. coli GC 2235; Escherichia coli, GC2235, E. coli GC 2235, Mouse Serum pre-incubation) | MIC (E. coli GC 2235; Escherichia coli, GC2235, E. coli GC 2235, Water pre-incubation)
> 64 µg/mL: MIC (E. coli GC 2272; Escherichia coli, GC2272, E. coli GC 2272, Mouse Serum pre-incubation) | MIC (E. coli GC 2272; Escherichia coli, GC2272, E. coli GC 2272, Water pre-incubation) | MIC (E. coli GC 4559; Mouse Serum pre-incubation) | MIC (E. coli GC 4559; Water pre-incubation) | MIC (E. coli GC 6465; Mouse Serum pre-incubation) | MIC (E. coli GC 6465; Water pre-incubation) | MIC (E. coli GC 1073; Escherichia coli, GC1073, E. coli GC 1073, Mouse Serum pre-incubation) | MIC (E. coli GC 1073; Escherichia coli, GC1073, E. coli GC 1073, Water pre-incubation) | MIC (S. typhimurium GC 2172; S. typhimurium GC 2172, Mouse Serum pre-incubation) | MIC (S. typhimurium GC 2172; S. typhimurium GC 2172, Water pre-incubation) | MIC (c. albicans GC 3066; Candida albicans, GC3066)
16 µg/mL: MIC (S. aureus GC 6467; Staphylococcus aureus, GC6467, S. aureus GC 6467, Mouse Serum pre-incubation) | MIC (S. aureus GC 6467; Staphylococcus aureus, GC6467, S. aureus GC 6467, Water pre-incubation) | MIC (S. epidermidis GC 4935; Staphylococcus epidermidis, GC4935, S. epidermidis GC 4935, Mouse Serum pre-incubation) | MIC (S. epidermidis GC 4935; Staphylococcus epidermidis, GC4935, S. epidermidis GC 4935, Water pre-incubation)
4 µg/mL: MIC (S. aureus GC 1131; Staphylococcus aureus, GC1131, S. aureus GC 1131, Water pre-incubation) | MIC (S. aureus GC 1079; Staphylococcus aureus, GC1079, S. aureus GC 1079, Water pre-incubation) | MIC (S. aureus GC 4536; Staphylococcus aureus, GC4536, S. aureus GC 4536, Water pre-incubation) | MIC (E. faecalis GC 4555; GC4555, E. faecalis GC 4555, Mouse Serum pre-incubation) | MIC (S. pneumoniae+ GC 4465; Streptococcus pneumoniae, S. pneumoniae+ GC 4465, Mouse Serum pre-incubation) | MIC (S. pneumoniae+ GC 4465; Streptococcus pneumoniae, S. pneumoniae+ GC 4465, Water pre-incubation)
>64 UG/ML: MIC (c. albicans GC 3066; c. albicans GC 3066, Water pre-incubation)
8 µg/mL: MIC (E. faecalis GC 4555; GC4555, E. faecalis GC 4555, Water pre-incubation) | MIC (E. faecalis GC 2267; Enterococcus faecalis, GC2267, E. faecalis GC 2267, Mouse Serum pre-incubation) | MIC (E. faecalis GC 2267; Enterococcus faecalis, GC2267, E. faecalis GC 2267, Water pre-incubation) | MIC (E. faecalis GC 2242; Enterococcus faecalis, GC2242, E. faecalis GC 2242, Mouse Serum pre-incubation) | MIC (E. faecalis GC 2242; Enterococcus faecalis, GC2242, E. faecalis GC 2242, Water pre-incubation) | MIC (S. agalactiae GC 4564; Streptococcus agalactiae, GC4564, S. agalactiae GC 4564, Mouse Serum pre-incubation) | MIC (S. agalactiae GC 4564; Streptococcus agalactiae, GC4564, S. agalactiae GC 4564, Water pre-incubation)
2 µg/mL: MIC (S. aureus GC 1131; Staphylococcus aureus, GC1131, S. aureus GC 1131, Mouse Serum pre-incubation) | MIC (S. aureus GC 1079; Staphylococcus aureus, GC1079, S. aureus GC 1079, Mouse Serum pre-incubation) | MIC (S. aureus GC 4536; Staphylococcus aureus, GC4536, S. aureus GC 4536, Mouse Serum pre-incubation) | MIC (S. pneumoniae* GC 4465; S. pneumoniae* GC 4465, Mouse Serum pre-incubation) | MIC (S. pneumoniae* GC 4465; S. pneumoniae* GC 4465, Water pre-incubation)
1 µg/mL: MIC (E. coli GC 4560; Mouse Serum pre-incubation) | MIC (E. coli GC 4560; Water pre-incubation)

CCCCN(CC(=O)Nc1cc(N(C)C)c2c(c1O)C(=O)C1=C(O)[C@]3(O)C(=O)C(C(N)=O)=C(O)[C@@H](N(C)C)C3CC1C2)C(=O)OCc1oc(=O)oc1C (stereo partly drawn) [Example 109, (5-methyl-2-oxo-1,3-dioxol-4-yl)methyl 2-{[(7S,10aS)-9-(aminocarbonyl)-4,7-bis(dimethylamino)-1,8,10a,11-tetrahydroxy-10,12-dioxo-5,5a,6,6a,7,10,10a,12-octahydrotetracen-2-yl]amino}-2-oxoethyl(butyl)carbamate]
1 UG/ML: MIC (E. coli GC 2235; pre-incubation in water) | MIC (E. coli GC 1073; pre-incubation in mouse serum)
> 64 µg/mL: MIC (c. albicans GC 3066; Candida albicans, GC3066)
0.76 mg/kg: ED50 (Staph. aureus Smith; iv, read-out: ED50 Staph Smith SIV)
<0.06 UG/ML: MIC (S. agalactiae GC 4564; pre-incubation in mouse serum)
4 µg/mL: MIC (S. typhimurium GC 2172; pre-incubation in mouse serum) | MIC (S. aureus GC 6467; Staphylococcus aureus, GC6467, pre-incubation in water) | MIC (S. aureus GC 1079; Staphylococcus aureus, GC1079, pre-incubation in water) | MIC (S. epidermidis GC 4935; Staphylococcus epidermidis, GC4935, pre-incubation in water)
1 µg/mL: MIC (S. aureus GC 1131; Staphylococcus aureus, GC1131, pre-incubation in mouse serum) | MIC (S. aureus GC 4536; Staphylococcus aureus, GC4536, pre-incubation in mouse serum) | MIC (E. faecalis GC 4555; GC4555, pre-incubation in water) | MIC (E. faecalis GC 2267; Enterococcus faecalis, GC2267, pre-incubation in mouse serum) | MIC (E. faecalis GC 2242; Enterococcus faecalis, GC2242, pre-incubation in mouse serum) | MIC (E. faecalis GC 2242; Enterococcus faecalis, GC2242, pre-incubation in water) | MIC (S. pneumoniae+ GC 4465; Streptococcus pneumoniae, pre-incubation in mouse serum) | MIC (S. pneumoniae+ GC 4465; Streptococcus pneumoniae, pre-incubation in water)
0.5 µg/mL: MIC (E. coli GC 2235; Escherichia coli, GC2235, pre-incubation in water) | MIC (E. coli GC 1073; Escherichia coli, GC1073, pre-incubation in mouse serum) | MIC (E. faecalis GC 4555; GC4555, pre-incubation in mouse serum)
0.12 µg/mL: MIC (S. agalactiae GC 4564; Streptococcus agalactiae, GC4564, pre-incubation in mouse serum)
2 UG/ML: MIC (E. faecalis GC 2242; pre-incubation in water) | MIC (S. pneumoniae+ GC 4465; pre-incubation in water)
19.9 mg/kg: ED50 (Staph. aureus Smith; Staphylococcus aureus, in Mus musculus, po, read-out: ED50 Staph Smith SOD)
0.25 µg/mL: MIC (E. coli GC 2235; Escherichia coli, GC2235, pre-incubation in mouse serum) | MIC (E. coli GC 2272; Escherichia coli, GC2272, pre-incubation in mouse serum) | MIC (S. agalactiae GC 4564; Streptococcus agalactiae, GC4564, pre-incubation in water)
2 µg/mL: MIC (S. aureus GC 1131; Staphylococcus aureus, GC1131, pre-incubation in water) | MIC (S. aureus GC 6467; Staphylococcus aureus, GC6467, pre-incubation in mouse serum) | MIC (S. aureus GC 1079; Staphylococcus aureus, GC1079, pre-incubation in mouse serum) | MIC (S. aureus GC 4536; Staphylococcus aureus, GC4536, pre-incubation in water) | MIC (S. epidermidis GC 4935; Staphylococcus epidermidis, GC4935, pre-incubation in mouse serum) | MIC (E. faecalis GC 2267; Enterococcus faecalis, GC2267, pre-incubation in water)
4 UG/ML: MIC (S. aureus GC 1131; pre-incubation in water) | MIC (S. aureus GC 4536; pre-incubation in water) | MIC (E. faecalis GC 2267; pre-incubation in water)
16 µg/mL: MIC (S. typhimurium GC 2172; pre-incubation in water)
< 0.06 µg/mL: MIC (S. pneumoniae* GC 4465; pre-incubation in mouse serum)
>64 UG/ML: MIC (c. albicans GC 3066; pre-incubation in water)
8 UG/ML: MIC (S. aureus GC 6467; pre-incubation in water) | MIC (S. aureus GC 1079; pre-incubation in water) | MIC (S. epidermidis GC 4935; pre-incubation in water)
0.50 UG/ML: MIC (E. coli GC 2235; pre-incubation in mouse serum) | MIC (E. coli GC 2272; pre-incubation in mouse serum)
